Test results as given in PMC6611809, “Actin stabilizing compounds show specific biological effects due to their binding mode” (Scientific Reports, 2019).

Target: T1, actin (F-actin) (Oryctolagus cuniculus, UniProt P68135)
T1 construct: gene ACTA1; Atto488-labeled F-actin from rabbit skeletal muscle
Assay: TIRF displacement of rhodamine-phalloidin from purified actin filaments; supported by pyrene, TIRF and FCS polymerization assays
Type: binding
From the text: TIRF displacement of rhodamine-phalloidin from purified actin filaments; supported by pyrene, TIRF and FCS polymerization assays on actin (F-actin) | Rhodamine-labeled phalloidin could be displaced from actin filaments by MiuA in a concentration dependent manner

- IC50: ~5 nM
Compound: CO/C(=C1/NC(=O)C(Cc2ccc(O)c(Br)c2)N(C)C(=O)C(C)NC(=O)CCC/C=C(\C)CCC(C)OC1=O)c1ccccc1 (stereo not shown) [MiuA, Miuraenamide A]
